# Test results reported in patent US8586747B2, “3,3-dimethyl tetrahydroquinoline derivatives” (Hoffmann-La Roche Inc., priority 2010, dated 2013).
# Test system: AMP-activated protein kinase (AMPK)
# Assay: ADP Quest assay for AMPK activators
# Type: biochemical
# Parameters: key: fold AMPK activation with vs without activator at 30 µM
# Settings: fold of AMPK activation to phosphorylate SAMS peptide without and with an activator at the concentration of 30 µM
# Summary of the method: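 E30, the fold increase in SAMS peptide phosphorylation at 30 µM compound relative to no activator, is derived from kinetic fluorescent detection of ADP (ex 530, em 590 nm). AMPK starts the ATP-containing reaction at room temperature; compounds span […] by 2-fold steps, AMP serves as reference.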
row,SMILES,E30
1,"Cc1ccccc1N1CCN(c2cccc(C3Nc4ccc(C(=O)O)cc4CC3(C)C)c2)CC1 (stereo not drawn) [Example 152, 3,3-Dimethyl-2-[3-(4-o-tolyl-piperazin-1-yl)-phenyl]-1,2,3,4-tetrahydroquinoline-6-carboxylic acid]",1.41
2,"CC1CN(c2cccc(C3Nc4ccc(C(=O)O)cc4CC3(C)C)c2)CC(C)O1 (stereo not drawn) [Example 106, 2-[3-(2,6-Dimethyl-morpholin-4-yl)-phenyl]-3,3-dimethyl-1,2,3,4-tetrahydro-quinoline-6-carboxylic acid]",1.3
3,"CC1(C)Cc2cc(C(=O)O)ccc2NC1c1cccc(C(=O)NC2CCC2)c1 (stereo not drawn) [Example 172, 2-(3-(Cyclobutylcarbamoyl)phenyl)-3,3-dimethyl-1,2,3,4-tetrahydroquinoline-6-carboxylic acid]",1.34
4,"CC1(C)Cc2cc(C(=O)NS(C)(=O)=O)ccc2NC1c1cccc(NC(=O)c2cnccn2)c1 (stereo not drawn) [Example 11, Pyrazine-2-carboxylic acid [3-(6-methanesulfonylaminocarbonyl-3,3-dimethyl-1,2,3,4-tetrahydro-quinolin-2-yl)-phenyl]-amide]",1.25
5,"CC1(C)Cc2c(cc(F)cc2C(=O)O)NC1c1cccc(N2CCOCC2)c1 (stereo not drawn) [Example 134, 7-Fluoro-3,3-dimethyl-2-(3-morpholin-4-yl-phenyl)-1,2,3,4-tetrahydro-quinoline-5-carboxylic acid]",1.32
6,"CC1(C)Cc2cc(C(=O)O)ccc2NC1c1ccccc1NC(=O)C1CC1 (stereo not drawn) [Example 214, 2-(2-(Cyclopropanecarboxamido)phenyl)-3,3-dimethyl-1,2,3,4-tetrahydroquinoline-6-carboxylic acid]",1.41
7,"CC1(C)Cc2cc(C(=O)O)ccc2NC1c1cccc(S(=O)(=O)N2CCCC2)c1 (stereo not drawn) [Example 227, 3,3-Dimethyl-2-(3-(pyrrolidin-1-ylsulfonyl)phenyl)-1,2,3,4-tetrahydroquinoline-6-carboxylic acid]",1.2
8,"CC1(C)Cc2cc(Cl)cc(C(=O)NS(=O)(=O)C3CC3)c2NC1c1cccc(NC(=O)c2cnccn2)c1 (stereo not drawn) [Example 2, Pyrazine-2-carboxylic acid [3-(6-chloro-8-cyclopropanesulfonylaminocarbonyl-3,3-dimethyl-1,2,3,4-tetrahydro-quinolin-2-yl)-phenyl]-amide]",1.42
9,"CN1CCN(c2cccc(C3Nc4ccc(C(=O)NS(C)(=O)=O)cc4CC3(C)C)c2)C(=O)C1=O (stereo not drawn) [Example 131, N-{3,3-Dimethyl-2-[3-(4-methyl-2,3-dioxo-piperazin-1-yl)-phenyl]-1,2,3,4-tetrahydro-quinoline-6-carbonyl}-methanesulfonamide]",1.24
10,"CN1CCN(c2cccc(C3Nc4c(cc(Cl)cc4C(=O)NS(=O)(=O)C4CC4)CC3(C)C)c2)CC1 (stereo not drawn) [Example 139, Cyclopropanesulfonic acid {6-chloro-3,3-dimethyl-2-[3-(4-methyl-piperazin-1-yl)-phenyl]-1,2,3,4-tetrahydro-quinoline-8-carbonyl}-amide]",1.38
11,"CC1(C)Cc2cc(C(=O)O)ccc2NC1c1ccccc1NS(=O)(=O)c1ccccc1F (stereo not drawn) [Example 219, 2-(2-(2-Fluorophenylsulfonamido)phenyl)-3,3-dimethyl-1,2,3,4-tetrahydroquinoline-6-carboxylic acid]",2.57
12,"CC1(C)Cc2c(cc(F)cc2C(=O)NS(=O)(=O)C2CC2)NC1c1cccc(N2CCOCC2)c1 (stereo not drawn) [Example 138, Cyclopropanesulfonic acid [7-fluoro-3,3-dimethyl-2-(3-morpholin-4-yl-phenyl)-1,2,3,4-tetrahydro-quinoline-5-carbonyl]-amide]",1.21
13,"CC1(C)Cc2cc(C(=O)O)ccc2NC1c1cccc(C(=O)N2CCCC2)c1 (stereo not drawn) [Example 171, 3,3-Dimethyl-2-(3-(pyrrolidine-1-carbonyl)phenyl)-1,2,3,4-tetrahydroquinoline-6-carboxylic acid]",1.36
14,"CC1(C)Cc2cc(C(=O)O)ccc2NC1c1ccc(Cl)c(NC(=O)C2CCCCC2)c1 (stereo not drawn) [Example 195, 2-(4-Chloro-3-(cyclohexanecarboxamido)phenyl)-3,3-dimethyl-1,2,3,4-tetrahydroquinoline-6-carboxylic acid]",1.25
15,"CC1(C)Cc2cc(C(=O)NS(C)(=O)=O)ccc2NC1c1cc(C#N)cc(N2CCOCC2)c1 (stereo not drawn) [Example 69, N-[2-(3-Cyano-5-morpholin-4-yl-phenyl)-3,3-dimethyl-1,2,3,4-tetrahydro-quinoline-6-carbonyl]-methanesulfonamide]",1.28
16,"CC1(C)Cc2cc(C(=O)O)ccc2NC1c1cccc(-n2cnc3c(c2=O)CCN(Cc2ccccc2)C3)c1 (stereo not drawn) [Example 136, 2-[3-(7-Benzyl-4-oxo-5,6,7,8-tetrahydro-4H-pyrido[3,4-d]pyrimidin-3-yl)-phenyl]-3,3-dimethyl-1,2,3,4-tetrahydro-quinoline-6-carboxylic acid]",1.3
17,"CN1CCC(NC(=O)c2cccc(C3Nc4ccc(Cl)cc4CC3(C)C)c2)C1 (stereo not drawn) [Example 225, 3-(6-Chloro-3,3-dimethyl-1,2,3,4-tetrahydroquinolin-2-yl)-N-(1-methylpyrrolidin-3-yl)benzamide]",1.64

row,SMILES,E30
1,"CC(C)S(=O)(=O)Nc1cccc(C2Nc3ccc(C(=O)O)cc3CC2(C)C)c1 (stereo not drawn) [Example 166, 3,3-Dimethyl-2-(3-(1-methylethylsulfonamido)phenyl)-1,2,3,4-tetrahydroquinoline-6-carboxylic acid]",1.43
2,"CC1(C)Cc2c(cc(F)cc2C(=O)NS(C)(=O)=O)NC1c1cccc(N2CCOCC2)c1 (stereo not drawn) [Example 135, N-[7-Fluoro-3,3-dimethyl-2-(3-morpholin-4-yl-phenyl)-1,2,3,4-tetrahydro-quinoline-5-carbonyl]-methanesulfonamide]",1.31
3,"CC1(C)Cc2cc(C(=O)O)ccc2NC1c1cccc(S(=O)(=O)Nc2ccccc2)c1 (stereo not drawn) [Example 230, 3,3-Dimethyl-2-(3-(N-phenylsulfamoyl)phenyl)-1,2,3,4-tetrahydroquinoline-6-carboxylic acid]",1.27
4,"CC1(C)Cc2c(ccc(F)c2C(=O)NS(C)(=O)=O)NC1c1cccc(N2CCOCC2)c1 (stereo not drawn) [Example 118, N-[6-Fluoro-3,3-dimethyl-2-(3-morpholin-4-yl-phenyl)-1,2,3,4-tetrahydro-quinoline-5-carbonyl]-methanesulfonamide]",1.64
5,"Cc1cc(C2Nc3ccc(C(=O)NS(=O)(=O)C4CC4)cc3CC2(C)C)cc(N2CCOCC2)c1 (stereo not drawn) [Example 64, Cyclopropanesulfonic acid [3,3-dimethyl-2-(3-methyl-5-morpholin-4-yl-phenyl)-1,2,3,4-tetrahydro-quinoline-6-carbonyl]-amide]",1.48
6,"CN(C)S(=O)(=O)c1cccc(C2Nc3ccc(C(=O)O)cc3CC2(C)C)c1 (stereo not drawn) [Example 231, 2-(3-(N,N-dimethylsulfamoyl)phenyl)-3,3-dimethyl-1,2,3,4-tetrahydroquinoline-6-carboxylic acid]",1.31
7,"COC(=O)c1ccc2c(c1)CC(C)(C)C(c1cccc(C(=O)Nc3cnccn3)c1)N2 (stereo not drawn) [Example 197, Methyl 3,3-dimethyl-2-(3-(pyrazin-2-ylcarbamoyl)-phenyl)-1,2,3,4-tetrahydroquinoline-6-carboxylate]",1.22
8,"CC1(C)Cc2cc(C(=O)O)ccc2NC1c1cccc(NC(=O)Nc2cccc(F)c2)c1 (stereo not drawn) [Example 13, 2-{3-[3-(3-Fluoro-phenyl)-ureido]-phenyl}-3,3-dimethyl-1,2,3,4-tetrahydro-quinoline-6-carboxylic acid]",1.21
9,"CN1CCC(NC(=O)c2cccc(C3Nc4c(cccc4C(=O)O)CC3(C)C)c2)C1 (stereo not drawn) [Example 224, 3,3-Dimethyl-2-(3-(1-methylpyrrolidin-3-ylcarbamoyl)phenyl)-1,2,3,4-tetrahydroquinoline-8-carboxylic acid]",1.43
10,"CC(C)(Nc1cccc(C2Nc3ccc(C(=O)O)cc3CC2(C)C)c1)C(=O)O (stereo not drawn) [Example 15, 2-[3-(1-Carboxy-1-methyl-ethylamino)-phenyl]-3,3-dimethyl-1,2,3,4-tetrahydro-quinoline-6-carboxylic acid]",3.59
11,"CC(C)(C)c1ccc(-c2cccc(C3Nc4c(cc(Cl)cc4C(=O)NS(=O)(=O)C4CC4)CC3(C)C)c2)cc1 (stereo not drawn) [Example 143, Cyclopropanesulfonic acid [2-(4′-tert-butyl-biphenyl-3-yl)-6-chloro-3,3-dimethyl-1,2,3,4-tetrahydro-quinoline-8-carbonyl]-amide]",1.33
12,"Cc1ccc(S(=O)(=O)Nc2ccc(C3Nc4ccc(C(=O)O)cc4CC3(C)C)cc2)cc1 (stereo not drawn) [Example 183, 3,3-Dimethyl-2-(4-(4-methylphenylsulfonamido)phenyl)-1,2,3,4-tetrahydroquinoline-6-carboxylic acid]",1.25
13,"CC1(C)Cc2cc(C(=O)NS(=O)(=O)C3CC3)ccc2NC1c1cncc(N2CCOCC2)c1 (stereo not drawn) [Example 114, Cyclopropanesulfonic acid [3,3-dimethyl-2-(5-morpholin-4-yl-pyridin-3-yl)-1,2,3,4-tetrahydro-quinoline-6-carbonyl]-amide]",1.21
14,"CC1(C)Cc2cc(C(=O)NS(=O)(=O)C3CC3)ccc2NC1c1cc(Cl)cc(N2CCOCC2)c1 (stereo not drawn) [Example 56, Cyclopropanesulfonic acid [2-(3-chloro-5-morpholin-4-yl-phenyl)-3,3-dimethyl-1,2,3,4-tetrahydro-quinoline-6-carbonyl]-amide]",1.26
15,"CC1(C)Cc2cc(C(=O)NS(C)(=O)=O)ccc2NC1c1cccc(N2CC(F)C2)c1 (stereo not drawn) [Example 154, N-{2-[3-(3-Fluoro-azetidin-1-yl)-phenyl]-3,3-dimethyl-1,2,3,4-tetrahydro-quinoline-6-carbonyl}-methanesulfonamide]",1.24
16,"COCCNC(=O)c1cccc(C2Nc3ccc(C(=O)O)cc3CC2(C)C)c1 (stereo not drawn) [Example 192, 2-(3-(2-Methoxyethylcarbamoyl)phenyl)-3,3-dimethyl-1,2,3,4-tetrahydroquinoline-6-carboxylic acid]",1.27
